We go through 15 compounds from US11236055B2 (Venenum Biodesign, LLC, priority 2016, dated 2022).

Some results are limits rather than exact numbers.

The target in one data set is T1, mouse TGR5 receptor (Mus musculus, UniProt Q80SS6).
T1 construct: expressed in transfected cells; host or cells: HEK293-EBNA (293 c18, ATCC CRL10852), Hygromycin B selection
T1 sequence (Q80SS6 1-329): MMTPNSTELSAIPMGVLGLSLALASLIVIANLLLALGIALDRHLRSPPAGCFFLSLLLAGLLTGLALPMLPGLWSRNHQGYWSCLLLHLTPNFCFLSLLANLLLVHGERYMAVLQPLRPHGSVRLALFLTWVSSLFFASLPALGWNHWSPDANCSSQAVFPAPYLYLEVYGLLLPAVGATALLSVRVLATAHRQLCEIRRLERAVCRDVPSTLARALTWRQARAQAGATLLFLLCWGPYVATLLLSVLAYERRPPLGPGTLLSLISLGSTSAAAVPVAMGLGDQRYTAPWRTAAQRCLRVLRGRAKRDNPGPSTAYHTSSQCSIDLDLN
Kind of data set: Mouse TGR5 cAMP production assay (HTRF, Cisbio cAMP HiRange). The data set is classed as cell-based. The note with it: HEK293-EBNA cells overexpressing mouse TGR5, HTRF cAMP HiRange; coded A-D. The method, boiled down:
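cAMP read by HTRF competition after 1 h room-temperature compound exposure of mouse TGR5-overexpressing HEK293-EBNA cells. Cells were suspended in serum-free DMEM containing 500 μM IBMX; compounds ran as 12-point half-log dilutions in duplicate; EC50 derived.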
For orientation: cAMP levels reflect the balance of adenylyl cyclase and phosphodiesterase activity.

Another data set concerns the target T2, human TGR5 receptor (Homo sapiens, UniProt Q8TDU6).
T2 construct: host or cells: CHO-K1 (hTGR5-CHO cells)
T2 sequence (Q8TDU6 1-330): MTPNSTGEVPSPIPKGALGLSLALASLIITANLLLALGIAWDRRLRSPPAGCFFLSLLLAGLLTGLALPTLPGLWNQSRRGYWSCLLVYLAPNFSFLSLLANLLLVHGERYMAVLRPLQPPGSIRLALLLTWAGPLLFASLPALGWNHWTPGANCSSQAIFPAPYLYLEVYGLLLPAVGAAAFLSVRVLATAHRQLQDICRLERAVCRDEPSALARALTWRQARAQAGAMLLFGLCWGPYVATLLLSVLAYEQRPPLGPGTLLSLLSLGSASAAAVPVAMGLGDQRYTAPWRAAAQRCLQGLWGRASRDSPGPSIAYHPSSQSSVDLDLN
Kind of data set: Human TGR5 cAMP production assay. The data set is classed as cell-based. The note with it: human TGR5, luminescent cAMP assay; coded A-D; read-out: Human TGR5 Lum. cAMP Activity (EC50). The method, boiled down:
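Intracellular cAMP read by luminescent enzyme-complementation (XS+) after overnight development, following 1 h room-temperature compound treatment of hTGR5-CHO-K1 cells in IBMX plus anti-cAMP antibody. Compounds tested as half-log dilution series; EC50 derived.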

A further data set deals with Mouse STC-1 cells. The data set can be described thus: STC-1 GLP-1 assay. The data set is classed as cell-based. The note with it: GLP-1 secretion, 2 h, coded A-C, read-out: Mouse STC-1 HTRF GLP-1 Activity (EC50). The protocol:
We evaluated Compounds of the present invention for their ability to induce GLP-1 production in mouse intestinal neuroendocrine tumor cells. Mouse STC-1 cells were cultured and maintained in high glucose DMEM (Sigma #5796) supplemented with 15% horse serum, 5% Fetal Bovine Serum (FBS), 1% penicillin/streptomycin, and 2 mM L-alanine L-glutamine (GlutaMax). Two days prior to analysis of GLP-1 secretion cells were harvested using Accutase (Sigma), spun down then resuspended in high glucose DMEM media containing 2 mM L-alanine L-glutamine (GlutaMax), 10% charcoal-dextran stripped FBS, and 50 μg/mL Gentamicin, at a density of 100,000 cells/mL. 100 μL of cell suspension was added to each well of a 96-well Poly-D-Lysine coated culture plate (Sigma; cat #2382493) and was incubated at 37° C. with 5% CO2.
Compounds were initially diluted in 100% DMSO (12-point serial dilution by half logs) in a 96-well plate and then were further diluted 1:500 in Hanks' Balanced Salt Solution (HBSS) containing protease inhibitor cocktail, DPP-IV inhibitor, and 0.1% fatty acid free bovine serum albumin. On the day of the experiment cells were washed once with HBSS. After wash, 100 μL of test compound was added to each well. The plate was incubated at 37° C. with 5% CO2 for 2 h. Supernatants were collected and GLP-1 secretion was measured using the Cisbio™ Active GLP-1 HTRF Assay Kit (Cisbio). Briefly, Anti-GLP-1-d2 conjugate and Anti-GLP-1 Terbium Cryptate conjugate stock solutions were prepared as per kit instructions. The two solutions were pre-mixed and 10 μL were transferred to a 384-well low volume plate (Greiner; cat #784075). 10 μL of collected supernatants were added to wells already containing the conjugate solution. The plate was covered and incubated at room temperature overnight. The plate was read on an Envision™ plate reader (Perkin Elmer).
In Table 34, EC50 values obtained from the STC-1 GLP-1 production assay for compounds of the present invention are summarized.

Data set [1] is described as follows: Pharmacokinetic profile in mice. The data set is classed as in vivo. As to conditions: mouse; fasted male Hilltop mice, 10 mg/kg oral gavage, plasma, mean of three mice. How it is done: Pharmacokinetic Profile in Mice
In this series of studies, the pharmacokinetic profile characteristics of compounds of the present invention were evaluated. The plasma concentration levels of the compounds were monitored in the blood stream (i.e., plasma) after oral gavage using Cmax, and area under the curve (AUC).
8 week old male Hilltop mice were fasted overnight. Animals were randomized into groups (n=9) by body weight. Mice were dosed with 10 mg/kg compound (in 20% PEG400/80% 0.5% carboxymethylcellulose (medium viscosity)+0.25% Tween-80) at a volume of 10 mL/kg through oral gavage. Blood was collected via orbital bleeding at 0, 0.25, 0.5, 1, 2, and 4 h post-dose, with no one mouse having more than 3 blood draws. Blood was collected in EDTA coated tubes. Samples were stored at −20° C. until analysis.
Quantitation of compound levels in plasma was accomplished by LC-MS/MS analysis. Standard curve and quality control samples were prepared in male CD-1 mouse plasma containing EDTA K^2+ as an anticoagulant at final concentrations ranging from 500 to 0.1 ng/mL. The plasma samples, calibration curve standards, and quality control samples were prepared in an identical method in a 96-well deep plate (1 mL) with a quenching solution (1:1 mixed acetonitrile:methanol containing the internal standard Reserpine @ 400 ng/mL). Low volume samples were supplemented with CD-1 mouse plasma. The plate was mixed on multi-tube votex for 1 min and centrifuged at 4000 rpm for 30 min at 4° C. (Sorvall® Super T21) before LC-MS/MS analysis. LC conditions were developed and optimized based on each compound as needed. The outlet of the column was coupled to AB Sciex 4000 QTrap Mass Spectrometer (AB Sciex, Brugg Switzerland). Detection was carried out using multiple reaction monitoring mode with positive-ion detection focusing. The pharmacokinetic parameters were derived from the plasma-time data and calculated using the standard non-compartmental method with WinNonlin (Pharsight, Mountain View, Calif.) or PK Solver (Comp. Meth. Prog. Biomed. (2010), 99, 306-314).
Values reported are the mean plasma concentration of three mice.

As usually defined, the EC50 is the concentration at which the effect is half-maximal. On to `Cc1cnccc1-c1cccc(C(NS(=O)(=O)c2ccccc2C(F)(F)F)C2CC2)c1` (racemic) [Compound 5AV, (+/−)N-(cyclopropyl(3-(3-methylpyridin-4-yl)phenyl)-methyl)-2-(trifluoromethyl)benzenesulfonamide], for which the values for the EC50 on mouse TGR5 receptor, on human TGR5 receptor and in the data set on Mouse STC-1 cells were 100 to 999 nM, below 100 nM and 1000 to 30000 nM, respectively.

In the case of `COc1cnccc1-c1cccc(C(C)(C)NS(=O)(=O)c2cccc(Cl)c2Cl)c1` [Compound 2BC], the figures for the 50% effective concentration (EC50) on mouse TGR5 receptor, on human TGR5 receptor and with Mouse STC-1 cells were below 100 nM, below 100 nM and 1000 to 30000 nM, respectively.

As for `COc1cnccc1-c1cccc(C(C)(C)NS(=O)(=O)c2cccc(Cl)c2C)c1` [Compound 2BL], the EC50 at mouse TGR5 receptor is below 100 nM; on human TGR5 receptor, below 100 nM; in the data set on Mouse STC-1 cells, 100 to 999 nM.

Regarding `CC[C@H](NS(=O)(=O)c1ccccc1C(F)(F)F)c1cccc(-c2ccncc2C)c1` [Compound 5AW, (S)-N-(1-(3-(3-methylpyridin-4-yl)phenyl)propyl)-2-(trifluoromethyl)benzenesulfonamide], the half-maximal effective concentration (EC50) on mouse TGR5 receptor is below 100 nM; on human TGR5 receptor, below 100 nM; with Mouse STC-1 cells it was 1000 to 30000 nM.

In the case of `COC(=O)CN(C(C)(C)c1cccc(-c2ccncc2C)c1)S(=O)(=O)c1ccccc1C(F)(F)F` [Compound 13, Methyl 2-(N-(2-(3-(3-methylpyridin-4-yl)phenyl)propan-2-yl)-2-(trifluoromethyl)phenylsulfonamido)acetate], the 50% effective concentration (EC50) was 100 to 999 nM at mouse TGR5 receptor, below 100 nM on human TGR5 receptor and 1000 to 30000 nM with Mouse STC-1 cells.

As to `COCCN(C(C)(C)c1cccc(-c2ccncc2C)c1)S(=O)(=O)c1ccccc1C(F)(F)F` [Compound 13AA, N-(2-methoxyethyl)-N-(2-(3-(3-methylpyridin-4-yl)phenyl)propan-2-yl)-2-(trifluoromethyl)benzenesulfonamide], the EC50 at mouse TGR5 receptor was 100 to 999 nM; on human TGR5 receptor, below 100 nM; in the data set with Mouse STC-1 cells, 100 to 999 nM.

In the case of `CCOC(=O)CCCN(C(C)(C)c1cccc(-c2ccncc2C)c1)S(=O)(=O)c1ccccc1C(F)(F)F` [Compound 14A, Ethyl 4-(N-(2-(3-(3-methylpyridin-4-yl)phenyl)propan-2-yl)-2-(trifluoromethyl)phenylsulfonamido)butanoate], the results for the EC50 at mouse TGR5 receptor, on human TGR5 receptor and in the data set with Mouse STC-1 cells were 100 to 999 nM, below 100 nM and 100 to 999 nM, respectively.

With `CCOC(=O)C[C@H](NS(=O)(=O)c1ccccc1C(F)(F)F)c1cccc(-c2ccncc2C)c1` [Compound 18A, (S)-ethyl 3-(3-(3-methylpyridin-4-yl)phenyl)-3-(2-(trifluoromethyl)phenylsulfonamido)-propanoate], the EC50 at mouse TGR5 receptor is below 100 nM; at human TGR5 receptor, below 100 nM; with Mouse STC-1 cells, 1000 to 30000 nM.

What is called Cmax is the highest concentration seen after dosing. Turning to `Cc1cnccc1-c1cccc(C(C)(C)N(CCCNC(=O)CS(=O)(=O)O)S(=O)(=O)c2cccc(Cl)c2C)c1` [Compound 31AB, 2-((3-(3-chloro-2-methyl-N-(2-(3-(3-methylpyridin-4-yl)phenyl)propan-2-yl)phenylsulfonamido)propyl)amino)-2-oxoethanesulfonic acid], the EC50 on mouse TGR5 receptor and on human TGR5 receptor was below 100 nM in each case. For the same compound, the highest level in data set [1] (Cmax) was 35.8 ng/mL.

On to `Cc1cnccc1-c1cccc([C@H](C)N(CCCC(=O)NCCS(=O)(=O)NCC(=O)O)S(=O)(=O)c2cccc(Cl)c2Cl)c1` [Compound 36AA, (S)-2-(4-(3-chloro-N-(1-(3-(3-methylpyridin-4-yl)phenyl)ethyl)-2-chloro-phenylsulfonamido)butanamido)ethanesulfonamido acetic acid], for which the EC50 at mouse TGR5 receptor and on human TGR5 receptor was below 100 nM throughout. Moreover, the concentration in data set [1] peaked (Cmax) at 7.5 ng/mL.

For `Cc1cnccc1-c1cccc([C@H](C)N(CCCC(=O)NCCNS(N)(=O)=O)S(=O)(=O)c2cccc(Cl)c2C)c1` [Compound 37, (S)-4-(3-chloro-2-methyl-N-(1-(3-(3-methylpyridin-4-yl)phenyl)ethyl)phenylsulfonamido)-N-(2-(sulfamoylamino)ethyl)butanamide], the concentration giving a half-maximal response (EC50) on mouse TGR5 receptor and on human TGR5 receptor was below 100 nM each time. The compound further yielded a Cmax in data set [1] of 122 ng/mL.

Consider `CCc1cnccc1-c1cccc(C2CN(C(=O)CCCC(=O)O)CCN2S(=O)(=O)c2cccc(Cl)c2C)c1` (stereo not drawn) [Compound 46AA, 5-(4-((3-chloro-2-methylphenyl)sulfonyl)-3-(3-(3-ethylpyridin-4-yl)phenyl)piperazin-1-yl)-5-oxopentanoic acid], for which the EC50 on mouse TGR5 receptor and at human TGR5 receptor was below 100 nM throughout. Also, the Cmax in data set [1] turned out to be 1.6 ng/mL.

For the compound `CCc1cnccc1-c1cccc(C2CN(C(=O)COCC(=O)O)CCN2S(=O)(=O)c2cccc(Cl)c2C)c1` (stereo not drawn) [Compound 46AB, 2-(2-(4-((3-chloro-2-methylphenyl)sulfonyl)-3-(3-(3-ethylpyridin-4-yl)phenyl)piperazin-1-yl)-2-oxoethoxy)acetic acid], the EC50 at mouse TGR5 receptor and on human TGR5 receptor was below 100 nM throughout. Moreover, the concentration in data set [1] peaked (Cmax) at 4.5 ng/mL.

On to `CCc1cnccc1-c1cccc(C2CN(S(=O)(=O)CC(=O)O)CCN2S(=O)(=O)c2cccc(Cl)c2C)c1` (stereo not drawn) [Compound 47, 2-((4-((3-Chloro-2-methylphenyl)sulfonyl)-3-(3-(3-ethylpyridin-4-yl)phenyl)piperazin-1-yl)sulfonyl)acetic acid], for which the EC50 at mouse TGR5 receptor and on human TGR5 receptor was below 100 nM in each case. In data set [1], the highest level (Cmax) was 228 ng/mL.

For `CCc1cnccc1-c1cccc(C2CN(CCCC(=O)O)CCN2S(=O)(=O)c2cccc(Cl)c2C)c1` (stereo not drawn) [Compound 52AA, 4-(4-((3-chloro-2-methylphenyl)sulfonyl)-3-(3-(3-ethylpyridin-4-yl)phenyl)piperazin-1-yl)butanoic acid], the 50% effective concentration (EC50) on mouse TGR5 receptor and at human TGR5 receptor was below 100 nM each time. In addition, the Cmax in data set [1] amounted to 647 ng/mL.
